# Test results published in article PMC8956739, “A synthetic lipopeptide targeting top-priority multidrug-resistant Gram-negative pathogens” (Nature Communications, 2022).
# Several values for one entry are separate records, joined by “and”; a condition that tells them apart may be missing. Equal values may be shown once. Read-outs that look alike come from different tables or passages of the source. Residues, ends and D or L forms follow the SMILES beside them.
# Columns and labels:
# [1] = system: K. pneumoniae FADDI-KP065; experiment: Neutropenic mouse pneumonia model; format: in vivo; settings: for bacterial killing in lung at 24 h vs pre-treatment inoculum: 45 mg/kg/d IP in three divided doses every 8 h; for Tukey HSD diff, Pre-treatment minus treated group (Log10 CFU/lung) / Tukey HSD diff, Vehicle minus treated group (Log10 CFU/lung): Fig. c; for Log10 CFU/lung: Figure 3c, individual mice
# Experimental: (§1) The experimental methodology for the neutropenic mouse lung infection model was previously described in detail. Briefly, Swiss mice (female, 7-week-old, 22–28 g) were rendered neutropenic by intraperitoneal administration of cyclophosphamide, 4 days (150 mg/kg) and 1 day (100 mg/kg) prior to inoculation. Lung infection was established by the administration of 25 µL of early log-phase bacterial suspension (polymyxin-susceptible or resistant isolate, 4 × 10^7 CFU/mL), directly into the lungs via the trachea using a MicroSprayer™ device. Lipopeptide solutions were prepared in sterile saline. At 2 h after inoculation, mice (n = 3 or 4) were administered lipopeptide (45–240 mg/kg/d free base) or control (sterile saline) via an intraperitoneal or subcutaneous bolus injection in three divided doses every 8 h. At 0 or 24 h after the administration of lipopeptide solution or saline (control), animals were euthanized and lungs were collected and homogenized under sterile conditions. Homogenate was filtered and the filtrate was collected, serially diluted in sterile saline, and spread on nutrient agar plates. Agar plates were incubated at 37 °C overnight for bacterial colony counting and the bacterial load of the lung (log10 CFU/lung) in each mouse was calculated. In vivo efficacy was calculated as the difference of the log10 CFU/lung values between the treated mice at 24 h and the pre-treatment (control) at 0 h (Δlog10 CFU/lung = log10 [treated] CFU/lung − log10 [pre-treatment] CFU/lung).
# [2] = system: P. aeruginosa FADDI-PA038; experiment: Neutropenic mouse pneumonia model; format: in vivo; settings: for bacterial killing in lung at 24 h vs pre-treatment inoculum: 45 mg/kg/d IP in three divided doses every 8 h; for Tukey HSD diff, Pre-treatment minus treated group (Log10 CFU/lung) / Tukey HSD diff, Vehicle minus treated group (Log10 CFU/lung): Fig. a; for Log10 CFU/lung: Figure 3a, individual mice
# Experimental: as §1
# [3] = system: P. aeruginosa FADDI-PA102; experiment: MIC, polymyxin-resistant isolate; format: cell-based, Pseudomonas aeruginosa; settings: carbapenem-resistant
# Experimental: MICs were determined in cation-adjusted Mueller–Hinton broth (CaMHB) by the broth micro-dilution method against ATCC strains and clinical isolates. MICs in the presence of Survanta® were determined as described above against P. aeruginosa ATCC 27853. In the 100 μL of fresh CaMHB containing polymyxins, 10% Survanta® (v/v, 2.5 mg/mL phospholipids) was added. MICs in the presence and absence of Survanta® were compared to determine the effect of binding to lung surfactant on the antibacterial activity of polymyxins.
# [4] = in vivo
# Experimental: The plasma pharmacokinetic profiles of F365 and polymyxin B were assessed in Swiss mice (female, 7-week-old, 22–28 g) after a single intraperitoneal dose (5 mg/kg, n = 3). Blood samples were collected at various time points over 24 h post dosing for analysis. The plasma pharmacokinetic profiles of F365 (n = 5) and polymyxin B (1 mg/kg, n = 11) in Sprague-Dawley rats (male, 10-week-old, 280 to 330 g) were assessed after intravenous administration (1 min) of F365 and polymyxin B via an indwelling jugular vein cannula. Blood samples (~0.3 mL) were collected via an indwelling carotid artery cannula at various time points over 24 h post dosing. Urine samples were collected at 4 °C using a metabolic cage during the period between 0 and 24 h post dosing. Concentrations of F365 and polymyxin B in plasma and urine samples were determined using LC-MS/MS and pharmacokinetic analysis was conducted using WinNonlin (Pharsight Corp., Mountain View, CA). The ELF pharmacokinetic profiles of F365 and polymyxin B was determined in neutropenic Swiss mice (female, 7-week-old, 22–28 g) after subcutaneous injection (40 mg/kg, n = 3). Bronchoalveolar lavage (BAL) samples were collected at various time points over 24 h post dosing from the cannulated trachea using Milli-Q water as BAL washing media. The average volume of ELF in mice was calculated by the ratio of urea concentrations in plasma and BAL samples. Concentrations of F365 and polymyxin B in plasma and BAL were analyzed by LC-MS/MS. Pharmacokinetic parameters were calculated using a non-compartment model with WinNonlin. For mouse, rat, and human plasma protein binding of F365 and polymyxin B, pooled plasma samples (n = 3) from each species were spiked with F365 or polymyxin B. The spiked plasma samples were subjected to ultrafiltration and the corresponding filtrates were analyzed by LC-MS/MS to determine the concentration of F365 and polymyxin B and the protein binding in each species.
# P. aeruginosa PAM2035 = format: cell-based, Pseudomonas aeruginosa; settings: nitrocefin hydrolysis, without Mg2+
# Experimental: Bacterial strains were seeded in 50 mL of Luria-Bertani (LB) broth at OD600 0.05 and grown at 37 °C for 3-4 h until an OD600 of 0.6–0.8 was achieved. Bacterial cells were washed twice with 25 mL of buffer (50 mM sodium phosphate, 0.5% glucose, pH 7, with or without 1 mM Mg^2+), resuspended in 10 mL of the buffer, and then adjusted to an OD600 of 0.4. […] Bacterial suspension (50 μL, OD600 0.4) in buffer was added to the lipopeptide solutions and the rate of substrate hydrolysis was measured at 490 nm.
# Activity of F365 and polymyxin B in the outer membrane permeabilization assay.
# The outer and inner membranes of gram-negative bacteria are the sites of interaction and action of polymyxin antibiotics, respectively. These polycationic compounds bind to phosphate residues of lipid A and displace the magnesium and calcium ions that cross-bridge adjacent lipid A molecules thereby stabilizing the outer membrane. […]
# as the main mechanism of action by polymyxin B and colistin. The outer membrane-permeabilizing effect of F365 at a wide range of concentrations was assessed by examining the rates of hydrolysis of a chromogenic β-lactam, nitrocefin, by intact cells of Pseudomonas aeruginosa. […]
# [5] = 90 mg/kg/d IP in three divided doses every 8 h
Compound,bacterial killing in lung at 24 h vs pre-treatment inoculum [1],"Tukey HSD diff, Pre-treatment minus treated group (Log10 CFU/lung) ([1]; 45mg/kg/d)","Tukey HSD diff, Vehicle minus treated group (Log10 CFU/lung) ([1]; 45mg/kg/d)",Log10 CFU/lung ([1]; 45mg/kg/d),bacterial killing in lung at 24 h vs pre-treatment inoculum [2],"Tukey HSD diff, Pre-treatment minus treated group (Log10 CFU/lung) ([2]; 45mg/kg/d)","Tukey HSD diff, Vehicle minus treated group (Log10 CFU/lung) ([2]; 45mg/kg/d)",Log10 CFU/lung ([2]; 45mg/kg/d),MIC P. aeruginosa FADDI-PA102 [3] [µg/mL],"Free AUC(0-∞) in ELF (estimated fAUCELF) ([4]; mouse, sc, 40 mg/kg) [ng·h/mL]","Total CL ([4]; mouse, sc, 40 mg/kg) [mL/min/kg]","half-life ([4]; mouse, sc, 40 mg/kg) [h]","half-life ([4]; rat, iv, 1 mg/kg) [h]",IC50 for membrane permeabilization (P. aeruginosa PAM2035) [µg/mL],also measured
"CC[C@@H]1NC(=O)[C@@H](CC(C)C)NC(=O)[C@H](CCN)NC(=O)[C@@H](NC(=O)[C@H](CN)NC(=O)[C@@H](NC(=O)[C@H](CCN)NC(=O)c2ccc(Cl)cc2Cl)[C@@H](C)O)CCNC(=O)[C@H]([C@@H](C)O)NC(=O)[C@H](CCN)NC(=O)[C@H](CCN)NC1=O [Lipopeptide F365] (HELM PEPTIDE1{[O=C(c1ccc(Cl)cc1Cl)[*:2]].[Dab].T.[NC[C@H](N[*:1])C(=O)[*:2]].[Dab].[Dab].[dL].[Abu].[Dab].[Dab].T}$PEPTIDE1,PEPTIDE1,5:R3-11:R2$$$V2.0)",did not show any significant killing,0.265,2.146,4.76 Log10 CFU/lung and 7.31 Log10 CFU/lung and 6.40 Log10 CFU/lung and 7.13 Log10 CFU/lung,did not show any significant killing,-0.4375,2.481,7.09 Log10 CFU/lung and 6.80 Log10 CFU/lung and 6.82 Log10 CFU/lung and 6.79 Log10 CFU/lung,4,86200,7.67,3.39,0.91,0.73 ± 0.07,"bacterial killing in lung at 24 h [1, 5]: bacterial killing; Tukey HSD diff, Pre-treatment minus treated group (Log10 CFU/lung) ([1]; 90mg/kg/d): 2.6475; Tukey HSD diff, Vehicle minus treated group (Log10 CFU/lung) ([1]; 90mg/kg/d): 4.5285; Log10 CFU/lung ([1]; 90mg/kg/d): 5.21 Log10 CFU/lung and 3.53 Log10 CFU/lung and 3.48 Log10 CFU/lung and 3.85 Log10 CFU/lung; bacterial killing in lung at 24 h [2, 5]: bacterial killing; Tukey HSD diff, Pre-treatment minus treated group (Log10 CFU/lung) ([2]; 90mg/kg/d): 1.005; Tukey HSD diff, Vehicle minus treated group (Log10 CFU/lung) ([2]; 90mg/kg/d): 3.9235; Log10 CFU/lung ([2]; 90mg/kg/d): 5.12 Log10 CFU/lung and 5.34 Log10 CFU/lung and 5.83 Log10 CFU/lung and 5.44 Log10 CFU/lung; AUC(0-inf) ([4]; mouse, sc, 40 mg/kg): 86200 ng·h/mL; Cmax in ELF relative to polymyxin B ([4]; mouse, sc, 40 mg/kg): 3 fold; urinary recovery relative to polymyxin B ([4]; rat): > 4 fold; AUC(0-inf) ([4]; rat, iv, 1 mg/kg): 2400 ng·h/mL; clearance ([4]; rat, iv, 1 mg/kg): 7.67 mL/min/kg"
Polymyxin B [reference compound],did not show any significant killing,-0.6875,1.1935,7.24 Log10 CFU/lung and 7.26 Log10 CFU/lung and 7.84 Log10 CFU/lung and 7.07 Log10 CFU/lung,did not show any significant killing,-1.2575,1.661,7.47 Log10 CFU/lung and 7.01 Log10 CFU/lung and 7.92 Log10 CFU/lung and 8.38 Log10 CFU/lung,4,10000,8.33,6.70,1.45,1.15 ± 0.22,"AUC(0-∞) in ELF ([4]; mouse, sc, 40 mg/kg): 80000 ng·h/mL"
